# Measured values: patent US9593305B2, “Differentiation of pluripotent stem cells” (Janssen Biotech, Inc., priority 2008, dated 2017)
# How the values were obtained:
# Type in all cases: cell-based
# [1] = tested on: H1 human embryonic stem cells; assay: Primary screening: definitive endoderm differentiation in the absence of activin A, cell number and SOX17 (Example 3); conditions: 2.5 μM compound, 20 ng/ml Wnt3a days 1-2, no activin A, four-day assay
# Experimental: (§1) Briefly, clusters of H1 human embryonic stem cells were grown on reduced growth factor […]™ (Invitrogen; Cat #1356231)-coated tissue culture plastic. Cells were passaged using collagenase (Invitrogen; Cat #17104-019) treatment and gentle scraping, washed to remove residual enzyme, and plated with even dispersal at a ratio of 1:1 (surface area) on reduced growth factor […]™-coated 96-well black plates (Packard ViewPlates; PerkinElmer; Cat #6005182) using volumes of 100 μl/well. Cells were allowed to attach as clusters and then recover log phase growth over a 1 to 3 day period, feeding daily with MEF conditioned medium supplemented with 8 ng/ml bFGF (R&D Systems; Cat #233-FB). Plates were maintained at 37° C., 5% CO2 in a humidified box throughout the duration of assay.
# The compounds tested were made available as 5 mM stocks in 96-well plate format, solubilized in 100% DMSO (Sigma; Cat #D2650) and stored at −80° C. The library compounds were further diluted to an intermediate concentration of 0.2 mM in 50 mM HEPES (Invitrogen; Cat #15630-080), 20% DMSO and stored at 4° C. Test conditions were performed in triplicate, feeding on alternate days over a four-day assay period. Primary screening assays were initiated by aspirating culture medium from each well followed by three washes in PBS (Invitrogen; Cat #14190) to remove residual growth factors and serum. On the first day of assay, test volumes of 200 μl per well were added back containing DMEM:F12 base medium (Invitrogen; Cat #11330-032) supplemented with 0.5% FCS (HyClone; Cat #SH30070.03) and 20 ng/ml Wnt3a (R&D Systems; Cat #1324-WN) plus 2.5 μM test compound. On the third day of assay, test volumes of 200 μl per well were added back containing DMEM:F12 base medium supplemented with 2% FCS plus 2.5 μM test compound, without Wnt3a. Positive control samples contained the same base medium supplemented with FCS, substituting 100 ng/ml recombinant human activin A (PeproTech; Cat #120-14) for the test compound throughout the four-day assay along with Wnt3a (20 ng/ml) added only on days 1 and 2. Negative control samples contained DMEM:F12 base medium supplemented with FCS, adding Wnt3a on days 1 and 2 but omitting activin A.
# (§2) At the conclusion of four-days of culture, assay plates were washed twice with PBS (Invitrogen; Cat #14190), fixed with 4% paraformaldehyde (Alexis Biochemical; Cat #ALX-350-011) at room temperature for 20 minutes, then washed three times with PBS and permeabilized with 0.5% Triton X-100 (Sigma; Cat #T8760-2) for 20 minutes at room temperature. Cells were washed again three times with PBS and blocked with 4% chicken serum (Invitrogen; Cat #16110082) in PBS for 30 minutes at room temperature. Primary antibody (goat anti-human SOX17; R&D Systems; Cat #AF1924) was diluted 1:100 in 4% chicken serum and added to each well for one hour at room temperature. Alexa Fluor 488 conjugated secondary antibody (chicken anti-goat IgG; Molecular Probes; Cat #AZ1467) was diluted 1:200 in PBS and added to each sample well after washing three times with PBS. To counter stain nuclei, 4 μg/ml Hoechst 33342 (Invitrogen; Cat #H3570) was added for ten minutes at room temperature. Plates were washed once with PBS and left in 100 μl/well PBS for imaging.
# (§3) Imaging was performed using an IN Cell Analyzer 1000 (GE Healthcare) utilizing the 51008bs dichroic for cells stained with Hoechst 33342 and Alexa Fluor 488. Exposure times were optimized from positive control wells and from untreated negative control wells stained with secondary antibody alone. Images from 15 fields per well were acquired to compensate for any cell loss during the bioassay and subsequent staining procedures. Measurements for total cell number and total SOX17 intensity were obtained from each well using IN Cell Developer Toolbox 1.7 (GE Healthcare) software. Segmentation for the nuclei was determined based on gray-scale levels (baseline range 100-300) and nuclear size. […]
# [2] = tested on: H1 human embryonic stem cells; assay: Secondary assay: compound combined with individual growth factors or small molecules, no activin A (Example 5, Table 4); conditions: growth factor 50 ng/ml combined with 2.5 μM compound and Wnt3a, no activin A
# Experimental: as §1, with “Clusters of H1” for “Briefly, clusters of H1”, “(Invitrogen; Cat #356231)-coated tissue culture” for “(Invitrogen; Cat #1356231)-coated tissue culture”, “(Invitrogen; Cat #Cat #17104-019) treatment” for “(Invitrogen; Cat #17104-019) treatment”
# Other agents tested were purchased as follows: BMP-7 (Sigma; Cat #B1434), LY294002 (Cayman; Cat 70920), PD98059, U0126, U0124 (EMD Biosciences; Cat #453710), muscimol (Tocris; Cat #0289), biuculline (Tocris; Cat #0130), sodium butyrate (Sigma; Cat #B5887). All growth factors were solubilized in PBS with 0.1% BSA (Sigma; Cat #A7888) and stored frozen at −80° C. Small molecules were solubilized in 100% DMSO (Sigma; Cat #D2650) and stored frozen at −80° C. The compounds were available as 5 mM stocks in 96-well plate format, solubilized in 100% DMSO and stored at −80° C. The compounds of the present invention were further diluted to an intermediate concentration of 0.2 mM in 50 mM HEPES (Invitrogen; Cat #15630-080), 20% DMSO and stored at 4° C. All growth factors and inhibitors were prepared in a deep well, 96-well polypropylene plate, diluted to 5× intermediate stocks in DMEM:F12 base medium at the beginning of assay and stored at 4° C.
# A secondary screening assay was conducted, testing in triplicate and feeding on alternate days over the four-day assay timeframe. Assays were initiated by aspirating culture medium from each well followed by three washes in PBS to remove residual growth factors and serum. Test volumes of 80 μl per well were added back containing DMEM:F12 base medium (Invitrogen; Cat #11330-032) supplemented with 0.625% FCS (HyClone; Cat #SH30070.03), 25 ng/ml Wnt3a (R&D Systems), and 3.125 μM compound plus 20 μl 5× stock of growth factor or small molecule to yield a final concentration of 0.5% FCS, 20 ng/ml Wnt3a, and 2.5 μM compound. […] Final assay concentrations of small molecules tested were as follows: muscimol (20 μM), PD98059 (1 μM), LY294002 (2.5 μM), 00124 (1 μM), U0126 (1 μM), sodium butyrate (0.5 mM). Positive control wells (100 μl/well) contained the same base medium supplemented with 0.5% FCS, 20 ng/ml Wnt3a and 100 ng/ml activin A. Negative control wells (100 μl/well) contained the same base medium with 0.5% FCS and 20 ng/ml Wnt3a, omitting activin A.
# On day 3, wells were aspirated and fed with 80 μl DMEM:F12 base medium supplemented with 2.5% FCS (HyClone) and 3.125 μM cyclic aniline-pyridinotriazine compound plus 20 μl 5× stock of growth factors or small molecules per well to yield a final concentration of 2% FCS and 2.5 μM compound (omitting Wnt3a) and as denoted on day one for all remaining growth factors or small molecules. Positive control wells (100 μl/well) contained the same base medium supplemented with 2% FCS and 100 ng/ml activin A, omitting Wnt3a. Negative control wells (100 μl/well) contained the same base medium with 2% FCS, omitting both activin A and Wnt3a.
# At the conclusion of four-days of culture, assay plates were washed twice with PBS, fixed with 4% paraformaldehyde (Alexis Biochemical; Cat #ALX-350-011) at room temperature for 20 minutes, then washed three times with PBS and permeabilized with 0.5% Triton X-100 (Sigma; Cat #T8760-2) for 20 minutes at room temperature. Cells were washed again three times with PBS and blocked with 4% chicken serum (Invitrogen; Cat #16110082) in PBS for 30 minutes at room temperature.
# [3] = tested on: H1 human embryonic stem cells; assay: Single-cell monolayer assay with EGF/FGF4, serum free, no activin A (Example 10, Table 10); conditions: No AA (with Wnt3a), FGF none
# Experimental: Briefly, clusters of H1 human embryonic stem cells were grown on reduced growth factor […]™ (Invitrogen; Cat #356231)-coated tissue culture plastic. Cultures were treated with Accutase (Sigma; Cat #A6964), using equivalent volumes of […] surface area for 5 minutes at 37° C., then gently resuspended, pelleted by centrifugation, and resuspended in MEF conditioned medium for counting. For assay seeding, cells were plated at 50,000 cells/cm^2 on reduced growth factor […]™-coated 96-well black plates (Packard ViewPlates; Cat #6005182) using volumes of 100 μl/well. Cells were allowed to attach and recover log phase growth over a 3 to 5 day period, feeding daily with MEF conditioned medium supplemented with 8 ng/ml bFGF (R&D Systems; Cat #233-FB). Plates were maintained at 37° C., 5% CO2 in a humidified box throughout the duration of assay.
# Stocks of EGF and FGF4 were prepared in a 96-well polypropylene plate (Corning, Inc.; Cat #3960). Compound 22 was available as a 5 mM stock solubilized in 100% DMSO (Sigma; Cat #D2650) and stored at −80° C. Assays were initiated by aspirating culture medium from each well followed by three washes in PBS to remove residual growth factors and serum. […]
# On the second day of assay, wells were again aspirated and fed with 80 μl per well were added back containing RPMI 1640 base medium supplemented with 2.5% fatty acid free BSA, 10 ng/ml bFGF, and 3.125 μM Compound 22 plus 20 μl 5× stock of growth factors to yield a final concentration of 2% fatty acid free BSA, 8 ng/ml bFGF and 2.5 μM Compound 22 in assay. Positive control wells contained the same base medium supplemented with 2% fatty acid free BSA, 8 ng/ml bFGF and 100 ng/ml recombinant human activin A. Negative control samples contained the same base medium supplemented with 2% fatty acid free BSA and 8 ng/ml bFGF but omitted treatment with activin A.
# as §2, with “with PBS,” for “with PBS (Invitrogen; Cat #14190),”, “Systems; cat” for “Systems; Cat”, “To counterstain” for “To counter stain”
# as §3, with “size. Averages and standard deviations were calculated for each replicate data set. Total SOX17 protein expression was reported as total intensity or integrated intensity, defined as total fluorescence of the cell multiplied by the area of the cell. Background was eliminated based on acceptance criteria of gray-scale ranges between 200 to 3500.” for “size.”
Compound,Cell Number: % of positive control [1],Sox17 Expression: % of positive control [1],Sox17 Expression: Average Total Intensity [1],Cell Number: Average Total Cell Number ([1]; positive control 100 ng/ml activin A + Wnt3a),increase in SOX17 expression (% of the activin A/Wnt3a control) [2] [%],"Cell Number, % of positive control ([3]; EGF(50 ng/ml)) [%]","Cell Number, Average Total Cell Number ([3]; EGF(50 ng/ml))","Sox17 Expression, % of positive control ([3]; EGF(50 ng/ml)) [%]","Sox17 Expression, Average Total Intensity ([3]; EGF(50 ng/ml))","Cell Number, % of positive control ([3]; EGF(100 ng/ml)) [%]","Cell Number, Average Total Cell Number ([3]; EGF(100 ng/ml))","Sox17 Expression, % of positive control ([3]; EGF(100 ng/ml)) [%]","Sox17 Expression, Average Total Intensity ([3]; EGF(100 ng/ml))"
"CC(C)(C)OC(=O)NCCc1cccc(Nc2ncnc(-c3ccnc(C#CCO)c3)n2)c1 [Compound 3, 1,1-Dimethylethyl {2-[3-({4[2-(3-hydroxyprop-1-yn-1-yl)pyridin-4-yl]-1,3,5-triazin-2-yl}amino)phenyl]ethyl}carbamate]",133.82 % of positive control,−0.73 % of positive control,−2.34E+06,14211,,,,,,,,,
EGF: growth factor purchased from R&D Systems,,,,,34,43.85,5558,18.44,5.01E+07,53.79,6818,23.62,6.42E+07
